From patent US11358939B2, “1,4-benzodiazepin-2-one derivatives and use thereof” (priority 2017, dated 2022)

Experiments:
[1] = tested on: central benzodiazepine receptors (CBR); assay: Affinity to central benzodiazepine receptors, competitive displacement of [3H]-flumazenil (radioreceptor method); assay type: binding; settings: 1×10^−6 mol/L
Method: Affinity of the compounds to central benzodiazepine receptors (CBR) was studied using radioreceptor method of competitive displacement of radioligant [^3H]-flumazenil (Ro 15-1788) from its specific binding sites at the receptor. Ligand displacement were performed in 1×10^−6 mol/L concentration.
(§1) Data on the affinity of 3-alcoxy-1,3-dihydro-2H-benzo[e][1,4]diazepin-2-ones (Ia) to central and peripheral benzodiazepine receptors is presented in Table 3.

[2] = tested on: writhes induced by intraperitoneal acetic acid; assay: Analgesic activity, acetic acid-induced writhing test (peripheral pain model); assay type: in vivo; settings: 1 mg/kg intraperitoneally, 40 min before 0.75% acetic acid
Method: Assessment of analgesic activity was performed in a model of peripheral pain based on chemical pain induced by intraperitoneal administration of acetic acid, leading to involuntary contractions of abdominal muscles, termed “writhes”, accompanied by hind leg extension and spine arching. The writhes were induced by 0.75% solution of acetic acid, which was administered intraperitoneally 40 min after intraperitoneal administration of test compounds in 0.001-5 mg/kg dose range. […] Analgesic activity was assessed by the ability of the compounds to reduce the number of writhes in test group compared to control group, and indicated as percentage using the following formula: AA=(Wc−Wt/Wc)×100%,
where AA—analgesic activity in %;
Wc—average number of writhes in control group;
Wt—average number of writhes in test group
Test compounds were studied in comparison with the reference drug sodium diclofenac in 10 mg/kg dose. ED50 was calculated using Prozorovsky method.

[3] = target: peripheral benzodiazepine receptors (PBR) (Homo sapiens, UniProt P30536); assay: Affinity to peripheral benzodiazepine receptors; assay type: binding; settings: 1×10^−6 mol/L
peripheral benzodiazepine receptors (PBR), sequence (P30536 whole entry, species assumed): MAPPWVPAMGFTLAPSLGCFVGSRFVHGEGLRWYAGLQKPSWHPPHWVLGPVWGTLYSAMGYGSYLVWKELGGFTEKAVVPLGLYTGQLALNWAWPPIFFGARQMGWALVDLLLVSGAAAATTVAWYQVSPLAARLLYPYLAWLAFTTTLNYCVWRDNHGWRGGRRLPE
From the text: as §1

[4] = tested on: general movement activity of animals; assay: General movement activity, open field test; assay type: in vivo; settings: for General movement activity (5 mg/kg): open field 3 min, sum of rearings, transitions, explored holes, 30 min before test; for Sedative properties (words, from general movement activity versus control): 5 mg/kg
Method: General movement activity was assessed in an open field test. While the animals were in the open field (3 min), the number of rearings (vertical movement activity), transitions between squares (horizontal movement activity) and the number of explored holes (exploratory activity) were registered. The sum of these values is general movement activity.
(§2) Diazepam drug was used as the reference drug. All test compounds and the reference drug diazepam were administered in a suspension with Tween-80 in 5 mg/kg dose 30 min before the start of experiments.

[5] = tested on: number of drinking actions despite electric shock; assay: Anxiolytic activity, conflict situation model (drinking versus electric shock); assay type: in vivo; settings: for Anxiolytic activity assessed using conflict situation method (5 mg/kg): number of drinking actions despite electric shock, 30 min before test; for Anxiolytic properties: 5 mg/kg
Method: Anxiolytic activity was assessed in a model of conflict situation based on the conflict of two reflexes (drinking and defensive) when drinking water from a water fountain. Anxiolytic activity was assessed by the number of drinking actions despite electric shock.
as §2

SMILES	Affinity CBR, % [1] [%]	Writhing inhibition, % of control in 1 mg/kg dose ([2]; compounds Ia) [%]	Affinity PBR, % [3] [%]	Writhing inhibition, % of control in 1 mg/kg dose ([2]; compounds Ib) [%]	General movement activity (5 mg/kg) [4]	Anxiolytic activity assessed using conflict situation method (5 mg/kg) [5]	Sedative properties (words, from general movement activity versus control) [4]	Anxiolytic properties [5]
CCCCOC1N=C(c2ccccc2F)c2cc(Br)ccc2NC1=O (centres unmarked) [Compound 3]	88	45	8	–	–	–	–	–
COCCOC1N=C(c2ccccc2)c2cc(Cl)ccc2NC1=O (centres unmarked) [Compound 16]	88	55	15	–	–	–	–	–
COCCOC1N=C(c2ccccc2F)c2cc(Br)ccc2NC1=O (centres unmarked) [Compound 5]	90	52	10	–	–	–	–	–
CCCOC1N=C(c2ccccc2Cl)c2cc([N+](=O)[O-])ccc2NC1=O (centres unmarked) [Compound 54]	88	–	16	–	–	–	–	–
CCOC1N=C(c2ccccc2Cl)c2cc([N+](=O)[O-])ccc2NC1=O (centres unmarked) [Compound 53]	85	–	15	–	–	–	–	–
COC(=O)CN1C(=O)C(Nc2ccc([N+](=O)[O-])cc2)N=C(c2ccccc2)c2cc([N+](=O)[O-])ccc21 (centres unmarked) [Compound 283]	–	–	–	54	22.0 ± 2.0	45.1 ± 2.6	–	–
COC(=O)CN1C(=O)C(Nc2ccc(F)cc2)N=C(c2ccccc2Cl)c2cc([N+](=O)[O-])ccc21 (centres unmarked) [Compound 319]	–	–	–	61	27.2 ± 2.1	18.1 ± 2.2	–	–
COC(=O)CN1C(=O)C(Nc2cccc([N+](=O)[O-])c2)N=C(c2ccccc2)c2cc(Cl)ccc21 (centres unmarked) [Compound 174]	–	–	–	58	18.0 ± 2.4	60.6 ± 7.0	–	–
CCCCOC1N=C(c2ccccc2)c2cc(OC(F)(F)F)ccc2NC1=O (centres unmarked) [Compound 29]	61	56	15	–	–	–	–	–
O=C1Nc2ccc(Cl)cc2C(c2ccccc2)=NC1OCC1CC1 (centres unmarked) [Compound 17]	79	54	14	–	–	–	–	–
COC(=O)CN1C(=O)C(Nc2cccc(Cl)c2)N=C(c2ccccc2F)c2cc([N+](=O)[O-])ccc21 (centres unmarked) [Compound 363]	–	–	–	70	41.0 ± 3.9	46.4 ± 4.2	don't have sedative properties	–
O=C1Nc2ccc(Br)cc2C(c2ccccc2F)=NC1OCCO (centres unmarked) [Compound 4]	91	56	8	–	–	–	–	–
O=C1Nc2ccc(OC(F)(F)F)cc2C(c2ccccc2)=NC1OCCO (centres unmarked) [Compound 30]	65	50	16	–	–	–	–	–
O=C1Nc2ccc(Br)cc2C(c2ccccc2F)=NC1OCC1CC1 (centres unmarked) [Compound 6]	89	55	15	–	–	–	–	–
COC(=O)CN1C(=O)C(Nc2ccccc2C(F)(F)F)N=C(c2ccccc2F)c2cc([N+](=O)[O-])ccc21 (centres unmarked) [Compound 398]	–	–	–	68	28.2 ± 3.3	33.1 ± 3.2	–	–
COC(=O)CN1C(=O)C(Nc2ccc([N+](=O)[O-])cc2)N=C(c2ccccc2)c2cc(OC(F)(F)F)ccc21 (centres unmarked) [Compound 229]	–	–	–	59	19.0 ± 1.0	38.7 ± 2.6	–	–
COC(=O)CN1C(=O)C(Nc2ccccc2[N+](=O)[O-])N=C(c2ccccc2)c2cc(Cl)ccc21 (centres unmarked) [Compound 173]	–	–	–	55	15.0 ± 1.3	120.5 ± 10.3	–	potent anxiolytic properties
COC(=O)CN1C(=O)C(Nc2ccc([N+](=O)[O-])cc2)N=C(c2ccccc2)c2cc(Cl)ccc21 (centres unmarked) [Compound 175]	–	–	–	55	20.0 ± 1.0	48.7 ± 3.6	–	–
CCCOC1N=C(c2ccccc2)c2cc(OC(F)(F)F)ccc2NC1=O (centres unmarked) [Compound 28]	60	60	18	–	–	–	–	–
CCCCOC1N=C(c2ccccc2Cl)c2cc([N+](=O)[O-])ccc2NC1=O (centres unmarked) [Compound 55]	87	–	19	–	–	–	–	–
COC(=O)CN1C(=O)C(Nc2ccccc2[N+](=O)[O-])N=C(c2ccccc2)c2cc([N+](=O)[O-])ccc21 (centres unmarked) [Compound 281]	–	–	–	61	14.0 ± 1.4	115.6 ± 9.3	–	potent anxiolytic properties
COC(=O)CN1C(=O)C(Nc2ccc(Cl)cc2)N=C(c2ccccc2F)c2cc([N+](=O)[O-])ccc21 (centres unmarked) [Compound 364]	–	–	–	64	34.5 ± 3.3	26.2 ± 3.4	–	–
COC(=O)CN1C(=O)C(Nc2cccc([N+](=O)[O-])c2)N=C(c2ccccc2)c2cc(OC(F)(F)F)ccc21 (centres unmarked) [Compound 228]	–	–	–	62	17.0 ± 2.4	40.6 ± 3.9	–	–
COC(=O)CN1C(=O)C(Nc2cccc(C(F)(F)F)c2)N=C(c2ccccc2F)c2cc([N+](=O)[O-])ccc21 (centres unmarked) [Compound 399]	–	–	–	70	41.8 ± 4.3	44.4 ± 4.3	don't have sedative properties	–
COC(=O)CN1C(=O)C(Nc2ccc(C(C)=O)cc2)N=C(c2ccccc2F)c2cc(Br)ccc21 (centres unmarked) [Compound 91]	–	–	–	62	25.2 ± 2.1	4.9 ± 2.2	–	–
COC(=O)CN1C(=O)C(Nc2cccc(F)c2)N=C(c2ccccc2Cl)c2cc([N+](=O)[O-])ccc21 (centres unmarked) [Compound 318]	–	–	–	65	28.5 ± 2.3	19.2 ± 3.4	–	–
COC(=O)CN1C(=O)C(Nc2ccccc2Cl)N=C(c2ccccc2F)c2cc([N+](=O)[O-])ccc21 (centres unmarked) [Compound 362]	–	–	–	65	29.2 ± 2.3	35.1 ± 3.5	–	–
COC(=O)CN1C(=O)C(Nc2ccccc2C(C)=O)N=C(c2ccccc2F)c2cc(Br)ccc21 (centres unmarked) [Compound 89]	–	–	–	66	40.0 ± 2.7	3.4 ± 1.2	don't have sedative properties	–
COC(=O)CN1C(=O)C(Nc2ccc(Br)cc2)N=C(c2ccccc2Cl)c2cc([N+](=O)[O-])ccc21 (centres unmarked) [Compound 328]	–	–	–	69	24.5 ± 2.3	23.2 ± 3.4	–	–
